Source: article PMC4428790, “In Silico and In Vitro Analysis of Bacoside A Aglycones and Its Derivatives as the Constituents Responsible for the Cognitive Effects of Bacopa monnieri” (PLoS ONE, 2015)

Columns and labels:
[1] = target: T1, M1 receptor (recombinant human membrane, CHO cells) (Homo sapiens, UniProt P11229); experiment: radioligand receptor binding assay, [3H]-NMS displacement; details: for IC50: mean ± S.D., 0.1 nM [3H]-NMS, assayed up to 100 or 30 μM
T1 construct: purchased Perkin Elmer Lot no; 1706299; host or cells: CHO cells
T1 sequence (P11229 1-460): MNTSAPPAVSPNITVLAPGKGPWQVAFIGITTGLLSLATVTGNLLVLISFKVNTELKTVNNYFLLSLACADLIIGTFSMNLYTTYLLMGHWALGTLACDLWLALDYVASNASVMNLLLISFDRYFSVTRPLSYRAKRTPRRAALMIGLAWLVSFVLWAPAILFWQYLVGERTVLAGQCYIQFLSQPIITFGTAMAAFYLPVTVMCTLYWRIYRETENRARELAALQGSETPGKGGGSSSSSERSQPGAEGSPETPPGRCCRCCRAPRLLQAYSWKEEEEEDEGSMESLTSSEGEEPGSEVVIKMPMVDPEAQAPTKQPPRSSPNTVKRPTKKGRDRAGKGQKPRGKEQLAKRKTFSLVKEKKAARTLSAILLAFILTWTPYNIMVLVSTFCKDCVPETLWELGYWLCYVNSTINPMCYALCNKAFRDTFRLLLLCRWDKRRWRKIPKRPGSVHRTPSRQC
Text: (§1) Recombinant human membrane preparations for M1 (expressed in CHO cells; Lot no. 1706299), 5-HT1A (HEK293 cells; no. 1812363), 5-HT2A (CHO cells; no. 1813092), D1 (L cells; no. 1840059), and D2S (CHO cells; no. 1820984) receptors and MicroScint-O scintillation cocktail were procured from Perkin Elmer (Waltham, MA, USA). [^3H] N-methylscopolamine (NMS), [^3H] 8-OH-DPAT, [^3H] ketanserin, [^3H] SCH 23390 and [^3H] methylspiperone were purchased from American Radiolabeled Chemicals (St. Louis, MO, USA). […] (DTNB) and donepezil hydrochloride were obtained from Sigma-Aldrich (St. Louis, MO, USA). Bacoside A, bacoside A3, bacopaside II, bacopaside X and bacopasaponin C were purchased from Chromadex Inc. (Irvine, CA, USA). Jujubogenin and ebelin lactone were purchased from Shanghai IS Chemical Technology Ltd. (Jinshan, Shanghai, China). Unless stated otherwise, all other reagents of analytical grade were obtained through standard commercial sources.
(§2) The assay was performed according to the methods published previously. […] Pseudojujubogenin and bacogenin A1 were not available for purchase at the time when the work was carried out. All compounds were dissolved in dimethylsulfoxide (DMSO) and the solvent was kept below 1% (v/v) in the final reaction mixture. Briefly, in each well, 100 μl of the respective membrane preparations (μg/well), 50 μl of the respective [^3H]-ligand and 50 μl of the test compounds were added and the total assay reaction volume was made up to 200 μl by adding assay buffer. […] The reaction mixture was incubated for 60 or 120 min at room temperature or 37°C for the respective membranes. The reaction was stopped by rapid filtration onto GF/C filter plates (presoaked in 0.5% polyethyleneimine) using FilterMate (Perkin Elmer) cell harvester and washed with wash buffer (200 μl for 5 times) to remove unbound ligands. The filter plates were dried at 60°C for 15 minutes before the application of Bottom Seal and addition of 50 μl MicroScint-O scintillation cocktail. The top of the plate was then sealed with TopSeal A. Radioactivity (CPM) was counted using TopCount NXT microplate scintillation counter (Perkin-Elmer). The data were analyzed by non-linear regression using Prism Version 5.0 (GraphPad Inc., San Diego CA, USA). The percentage of specific binding of radioligand in the presence of test compounds was calculated using the standard data reduction algorithm: ([B-NSB] / [TB-NSB]) × 100) where B is the binding in the presence of test compounds, NSB is the non-specific binding in the presence of excess reference ligand and TB is the total binding. K i values were calculated from the IC50 values using the Cheng-Prusoff equation [26].

[2] = target: T2, 5-HT1A receptor (recombinant human membrane, HEK293 cells) (Homo sapiens, UniProt P08908); experiment: radioligand receptor binding assay, [3H]-8-OH-DPAT displacement; details: mean ± S.D.; 2 nM [3H]-8-OH-DPAT; assayed up to 100 or 30 μM
T2 construct: purchased Perkin Elmer Lot no; 1812363; host or cells: HEK293 cells
T2 sequence (P08908 1-422): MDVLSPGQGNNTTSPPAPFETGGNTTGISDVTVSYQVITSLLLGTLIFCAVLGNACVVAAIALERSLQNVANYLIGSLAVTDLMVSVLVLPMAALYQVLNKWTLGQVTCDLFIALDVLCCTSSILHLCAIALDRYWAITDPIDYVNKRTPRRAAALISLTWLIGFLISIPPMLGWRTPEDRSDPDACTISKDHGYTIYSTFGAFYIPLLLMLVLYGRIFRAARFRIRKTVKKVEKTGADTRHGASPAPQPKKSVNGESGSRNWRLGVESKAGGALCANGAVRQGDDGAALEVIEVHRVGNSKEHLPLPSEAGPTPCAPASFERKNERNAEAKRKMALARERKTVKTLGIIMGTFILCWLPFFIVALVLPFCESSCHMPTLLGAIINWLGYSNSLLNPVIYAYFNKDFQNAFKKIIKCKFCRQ
Text: as §1, §2

[3] = target: T3, 5-HT2A receptor (recombinant human membrane, CHO cells) (Homo sapiens, UniProt P28223); experiment: radioligand receptor binding assay, [3H]-ketanserin displacement; details: for IC50: mean ± S.D., 1 nM [3H]-ketanserin, assayed up to 100 or 30 μM
T3 construct: purchased Perkin Elmer Lot no; 1813092; host or cells: CHO cells
Text: as §1, §2

[4] = target: T4, D1 receptor (recombinant human membrane, L cells) (Homo sapiens, UniProt P21728); experiment: radioligand receptor binding assay, [3H]-SCH 23390 displacement; details: for IC50: mean ± S.D., 0.2 nM [3H]-SCH 23390, assayed up to 100 or 30 μM
T4 construct: purchased Perkin Elmer Lot no; 1840059; host or cells: L cells
Text: as §1, §2

[5] = target: T5, D2S receptor (recombinant human membrane, CHO cells) (Homo sapiens, UniProt P14416); experiment: radioligand receptor binding assay, [3H]-methylspiperone displacement; details: mean ± S.D.; 0.2 nM [3H]-methylspiperone; assayed up to 100 or 30 μM; read-out: IC50 D2
T5 construct: purchased Perkin Elmer Lot no; 1820984; host or cells: CHO cells
Text: as §1, §2

M1 = target: M1; set-up: method as in PMID 24979399; details: M1 agonists; cited from earlier work
[6] = from IC50 by Cheng-Prusoff equation

T3 sequence (P28223 whole entry): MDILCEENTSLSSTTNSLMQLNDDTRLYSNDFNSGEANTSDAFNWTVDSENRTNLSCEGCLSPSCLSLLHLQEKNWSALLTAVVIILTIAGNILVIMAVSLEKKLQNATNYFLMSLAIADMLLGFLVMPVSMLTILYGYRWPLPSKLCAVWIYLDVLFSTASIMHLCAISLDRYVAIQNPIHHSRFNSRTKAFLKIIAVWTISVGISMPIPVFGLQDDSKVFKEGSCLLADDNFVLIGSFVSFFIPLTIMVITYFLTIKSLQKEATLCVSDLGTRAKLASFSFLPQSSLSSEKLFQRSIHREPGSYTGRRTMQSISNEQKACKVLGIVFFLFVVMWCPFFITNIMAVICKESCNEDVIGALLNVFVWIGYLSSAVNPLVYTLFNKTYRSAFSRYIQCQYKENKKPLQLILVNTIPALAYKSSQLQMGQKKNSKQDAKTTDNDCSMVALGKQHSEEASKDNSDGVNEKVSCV
T5 sequence (P14416 1-414 isoform P14416-2): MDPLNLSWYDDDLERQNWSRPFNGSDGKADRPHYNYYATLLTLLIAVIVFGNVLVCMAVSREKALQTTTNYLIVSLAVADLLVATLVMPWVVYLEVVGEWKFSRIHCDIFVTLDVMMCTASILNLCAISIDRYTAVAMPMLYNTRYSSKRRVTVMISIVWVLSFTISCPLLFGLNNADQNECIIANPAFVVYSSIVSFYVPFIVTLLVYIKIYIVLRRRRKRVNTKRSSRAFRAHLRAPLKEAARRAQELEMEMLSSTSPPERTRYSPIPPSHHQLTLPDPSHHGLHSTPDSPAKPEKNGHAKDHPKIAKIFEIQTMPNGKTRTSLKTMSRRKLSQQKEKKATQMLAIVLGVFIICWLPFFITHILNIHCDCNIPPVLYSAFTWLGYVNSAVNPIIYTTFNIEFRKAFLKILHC
T4 sequence (P21728 whole entry): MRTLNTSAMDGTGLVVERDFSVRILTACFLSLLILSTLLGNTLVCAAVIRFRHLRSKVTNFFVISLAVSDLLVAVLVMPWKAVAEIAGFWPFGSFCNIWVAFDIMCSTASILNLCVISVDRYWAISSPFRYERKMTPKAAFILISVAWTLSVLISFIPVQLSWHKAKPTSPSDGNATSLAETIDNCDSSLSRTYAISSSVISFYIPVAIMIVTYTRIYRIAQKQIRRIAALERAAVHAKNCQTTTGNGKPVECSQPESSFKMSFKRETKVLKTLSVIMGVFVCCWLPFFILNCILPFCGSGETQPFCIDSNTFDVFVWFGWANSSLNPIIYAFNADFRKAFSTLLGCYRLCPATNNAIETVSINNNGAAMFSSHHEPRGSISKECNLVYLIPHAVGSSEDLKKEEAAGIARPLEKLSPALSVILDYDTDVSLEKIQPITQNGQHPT

| Structure (SMILES) | IC50 [1] [µM] | IC50 [2] [µM] | IC50 [3] [µM] | IC50 [4] [µM] | IC50 [5] [µM] | Ki [1, 6] [µM] | Ki [3, 6] [µM] | Ki [4, 6] [µM] | Ki (M1) [µM] |
| --- | --- | --- | --- | --- | --- | --- | --- | --- | --- |
| CC(C)=C[C@H]1C[C@](C)(O)[C@@H]2[C@H]3CC[C@@H]4[C@@]5(C)CC[C@H](O[C@@H]6O[C@H](CO)[C@@H](O)[C@H](O[C@@H]7O[C@H](CO)[C@@H](O)[C@H](O)[C@H]7O)[C@H]6O[C@@H]6O[C@@H](CO)[C@H](O)[C@H]6O)C(C)(C)[C@@H]5CC[C@@]4(C)[C@@]34CO[C@@]2(C4)O1 [Bacoside A3, bacoside A3] | > 100 | > 100 | > 100 | > 100 | > 100 | – | – | – | – |
| CC(C)=CC1CC(C)(O)C2C3CCC4C5(C)CCC(O)C(C)(C)C5CCC4(C)C34COC2(C4)O1 (stereo not shown) [Jujubogenin, jujubogenin] | > 30 | > 30 | > 30 | > 30 | > 30 | – | – | – | – |
| CC(C)=CC1COC23CC4(CO2)C(CCC2C5(C)CCC(OC6OC(CO)C(O)C(OC7OC(CO)C(O)C(O)C7O)C6OC6OC(CO)C(O)C6O)C(C)(C)C5CCC24C)C3C1(C)O (stereo not shown) [Bacopaside II, bacopaside II] | > 30 | > 30 | > 30 | > 30 | > 30 | – | – | – | – |
| CC(C)=CC=CC(C)=CC1CCC2C3(C)CCC(O)C(C)(C)C3CCC2(C)C12COC(=O)C2 (stereo not shown) [Ebelin Lactone, ebelin lactone] | 0.8 ± 0.19 | > 30 | 14.5 ± 4.98 | > 30 | > 30 | 0.45 | 4.21 | – | – |
| CC(C)=C[C@H]1C[C@](C)(O)[C@@H]2[C@H]3CC[C@@H]4[C@@]5(C)CC[C@H](O[C@@H]6OC[C@H](O)[C@H](O[C@@H]7O[C@H](CO)[C@@H](O)[C@H](O)[C@H]7O)[C@H]6O[C@@H]6O[C@@H](CO)[C@H](O)[C@H]6O)C(C)(C)[C@@H]5CC[C@@]4(C)[C@@]34CO[C@@]2(C4)O1 [Bacopaside X, bacopaside X] | > 100 | > 100 | > 100 | 19.5 ± 3.07 | > 100 | – | – | 9.06 | – |
| CC(C)=C[C@@H]1CO[C@]23C[C@]4(CO2)[C@H](CC[C@@H]2[C@@]5(C)CC[C@H](O[C@@H]6OC[C@H](O)[C@H](O[C@@H]7O[C@H](CO)[C@@H](O)[C@H](O)[C@H]7O)[C@H]6O[C@@H]6O[C@@H](CO)[C@H](O)[C@H]6O)C(C)(C)[C@@H]5CC[C@]24C)[C@H]3[C@@]1(C)O [Bacopasaponin C, bacopasaponin C] | > 100 | > 100 | > 100 | > 100 | > 100 | – | – | – | – |
| CC(=O)OCC[N+](C)(C)C [acetylcholine] | – | – | – | – | – | – | – | – | 59 |
